Experiments:
Type in all cases: binding
[1] = molecular target: T1, TNKS2 ARC5 (Homo sapiens, UniProt Q9H2K2); assay: Differential scanning fluorimetry (DSF, thermal shift); conditions: fragment 500 μM, 5% DMSO
T1 construct: followed by TNKS2 ARC5 (1 μL, 100 μM stock); His6-GST; made in house; host or cells: E. coli
Experimental: Therefore, we chose TNKS2 ARC5 for screening by DSF, anticipating the largest signal window for measuring changes in Tm upon fragment binding.
We screened 1869 compounds in duplicate at a concentration of 500 μM, which we considered a reasonable compromise between having a sufficiently high concentration to identify weak binders while minimising the likelihood of false positives through fragment precipitation/aggregation and non-specific binding. The final DMSO concentration was 5%. We calculated melting temperatures using both the inflection point and the maximum peak of first derivative data methods. Both methods generally agreed, unless the melt curve was biphasic or misshapen, with slightly lower variability for the […] Tm determination method (see Materials and Methods for experimental and analysis details).
We determined the melting temperature for the unbound ARC (Tm, 0) from the mean of 12 reference melting curves per plate, with 5% DMSO only. We calculated the change in melting temperature (ΔTm) by subtracting the mean Tm, 0 from Tm, compound. We tested compounds in duplicate, defining fragments as hits if they conferred a ΔTm outside two standard deviations (2σ) from the mean, in one or both replicates. To check for consistency between plates, we ran triplicate peptide controls; however, we excluded peptide ΔTm values from the calculation of the mean ΔTm to avoid skewing the results. We observed mean ΔTm values (IP/1st derivative methods) of −0.127/−0.331 °C and σ as 0.997/1.19 °C. A hit cut-off of 2σ gave absolute shifts of +1.87/+2.05 °C for compounds that stabilised and −2.13/−2.71 °C for compounds that destabilised the ARC (Fig. 2B).
For the screen, a C1000 thermal cycler (Bio-Rad) was used to record melt curves. SYPRO Orange was purchased as a 5000 × stock in DMSO from Sigma Aldrich. The ICR fragment library was available as 100 mM stocks in DMSO, and dispensed (25 nL) using an ECHO acoustic liquid handling system into white 384-well PCR plates (Framestar, 4titude). Wells were backfilled with DMSO (225 nL). Buffer (2.75 μL, 25 mM HEPES-NaOH pH 7.5, 100 mM NaCl, 2 mM TCEP) was added, followed by TNKS2 ARC5 (1 μL, 100 μM stock) and then SYPRO orange dye (1 μL, 25×). The plate was centrifuged after the addition of each reagent (1 min, 1000 × g). Final assay concentrations were as follows: TNKS2 ARC5 (20 μM); fragment (500 μM); SYPRO Orange dye (5×); DMSO (5% v/v) in a total volume of 5 μL. Peptide control wells (3BP2 TBM 16-mer, 200 μM, sequence LPHLQRSPPDGQSFRSW with C-terminal tryptophan added for photometric concentration measurements, the N-terminus acetylated and the C-terminus amide-capped) were plated in triplicate, and there were 12 blank wells per plate, with DMSO only (250 nL, 5% v/v). Melt curves were recorded from 20–95 °C, with the temperature ramped by 0.5 °C every 15 s. Data were analysed using Vortex (Dotmatics) software and melting temperatures calculated from both the inflection point and the maximum peak of 1st-derivative data. Data points were excluded if the melt curve was poor, i.e., if there was no fluorescence signal above baseline, high fluorescence intensity throughout, or if the melt curve was shallow (<1000 rfu difference between baseline and peak maximum). The unbound melting temperature was determined from the mean of 12 reference melting curves, with 5% DMSO only. The change in melting temperature (ΔTm) was calculated by subtracting the mean Tm, 0 from Tm, compound. Compounds were tested in duplicate, and fragments were defined as hits if they gave a ΔTm outwith 2 σ from the mean in one or both replicates.
For the experiment shown in Fig. 2A, ARC and 3BP2 TBM peptide concentrations were 20 and 200 μM, respectively, in 50 mM HEPES-NaOH pH 7.5, 100 mM NaCl, 2 mM TCEP and a total volume of 25 μL. SYPRO Orange was added at 5×. Data were recorded from 4–95 °C, with the temperature ramped by 0.5 °C every 15 s, using a CFX384 thermal cycler (Bio-Rad). […]

[2] = molecular target: T2, TNKS2 ARC4 (Homo sapiens, UniProt Q9H2K2); assay: T2 relaxation-edited ligand-observed NMR assay; conditions: for T2 relaxation-edited: competition with 3BP2 TBM peptide: 3BP2 16-mer peptide 100 μM
T2 construct: The cell was filled with TNKS2 ARC4 (488–649); His6-GST; made in house; host or cells: E. coli
T2 sequence (Q9H2K2 488-649): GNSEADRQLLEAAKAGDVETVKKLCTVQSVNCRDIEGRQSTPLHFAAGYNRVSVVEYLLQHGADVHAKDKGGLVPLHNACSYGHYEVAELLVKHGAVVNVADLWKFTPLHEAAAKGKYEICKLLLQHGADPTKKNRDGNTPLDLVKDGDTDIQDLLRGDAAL
Experimental: We next sought close structural analogues of hit fragments 3 and 5 to gain early insights into structure-activity relationships (SAR) and binding modes of hit fragments. We initially tested the analogues using both relaxation-edited and waterLOGSY NMR assays against TNKS2 ARC4 (Table 1), followed by protein-observed NMR if binding was detected in both ligand-observed NMR experiments.
Fragments were dispensed in duplicate into a 384-well plate (250 nL, 100 mM stock in DMSO). Wells were backfilled with DMSO (2.25 μL). Tankyrase ARC protein (47.5 μL in 25 mM HEPES, pH 7.5, 100 mM NaCl, 2 mM TCEP, 10% D2O; 20 μM final protein concentration in the assay) was added to the ‘protein’ samples; buffer only (47.5 μL) was added to the ‘compound-only’ samples. Solutions were transferred to 1.7 mm NMR tubes using a Gilson liquid handling system. ^1H NMR spectra were recorded, with the DMSO and water signals dampened. A relaxation spin filter was applied at 400 ms[65]. Data were processed using Bruker Topspin 3.14. Lines were broadened with LB = 3.0, and the baseline was corrected between 6.0–10.0 ppm. The average integral for all peaks between 6.0–10.0 ppm was calculated, and the difference between compound-only and compound-plus-protein samples was compared. A reduction in signal integrals of ≥15% was classified as a hit. For competitive experiments, 3BP2 16-mer peptide (100 μM) was added, and the spectra were recorded and processed as above. The variability in signal reduction in the relaxation-edited experiment was previously determined as approximately ± 10% (Liu et al., unpublished observations).

[3] = molecular target: T2, TNKS2 ARC4; assay: Differential scanning fluorimetry (DSF); conditions: ARC 20 μM + 3BP2 TBM peptide 200 μM, inflection point method
Experimental: For the experiment shown in Fig. 2A, ARC and 3BP2 TBM peptide concentrations were 20 and 200 μM, respectively, in 50 mM HEPES-NaOH pH 7.5, 100 mM NaCl, 2 mM TCEP and a total volume of 25 μL. SYPRO Orange was added at 5×. Data were recorded from 4–95 °C, with the temperature ramped by 0.5 °C every 15 s, using a CFX384 thermal cycler (Bio-Rad). Data were analysed by non-linear regression in GraphPad Prism using a Boltzmann sigmoid with linear baselines. ΔTm values were determined using the inflection point method.

T1 sequence (Q9H2K2 641-800): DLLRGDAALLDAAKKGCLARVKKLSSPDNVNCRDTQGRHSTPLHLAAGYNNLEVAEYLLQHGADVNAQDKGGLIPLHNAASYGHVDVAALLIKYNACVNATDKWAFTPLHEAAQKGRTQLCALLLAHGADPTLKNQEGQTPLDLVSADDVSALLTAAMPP

O=C(NCc1ccco1)c1ccc(F)cc1 [compound 3]
ΔTm (°C) ([1]; method of Tm analysis not stated): 2.5 °C
binding to TNKS2 ARC4 by ligand-observed NMR, in words ([2]; DSF hit validation): bound

O=C(NCc1ccc(F)cc1)c1ccc2nccnc2c1 [compound 5]
ΔTm calculated by the inflection point method ([1]; screen, biphasic melt curves): 1.6 °C
ΔTm calculated by the 1st derivative method ([1]; screen, second peak used to calculate Tm): 8.1 °C
T2 relaxation-edited: competition with 3BP2 TBM peptide [2]: competitive

O=C(NCc1ccco1)c1ccc2nccnc2c1 [compound 9]
T2 relaxation-edited: competition with 3BP2 TBM peptide [2]: competitive
TNKS2 ARC4 binding of analogues, SAR summary in words ([2]; relaxation-edited and waterLOGSY NMR): preserved binding

LPHLQRSPPDGQSFRSW [3BP2 16-mer peptide, 16-mer TBM peptide derived from 3BP2, W added for A280, N-terminus acetylated, C-terminus amide-capped; positive control, reference compound]
ΔTm [3]: 0.63 °C

Reference: PMC6911004, “Fragment-based screening identifies molecules targeting the substrate-binding ankyrin repeat domains of tankyrase” (Scientific Reports, 2019)
